The text below walks through data of US9522910B2, “Protein kinase inhibitors (variants), use thereof in treating oncological diseases and a pharmaceutical composition based thereon” (Obshchestvo s ogranichennoy otvetstvennostyou “Fusion …, priority 2011, dated 2016).

For data set [1] the following is noted: in vivo; cited from earlier work.
The test system of data set [2] is A549 cells. The experiment in a line: Animal model of non-small cell lung cancer (A549 tumors in nude mice). Conditions: 30 mg/kg, oral gavage; end of the therapy (20 days); ratio of mean tumor volume in therapeutic and control groups. The format is in vivo, mouse. As for the experimental part: Male nude mice were used for this experiment. A549 cells (1×10^7) in 0.2 ml of Matrigel (BD Pharmingen) solution were injected in left mice leg upon ketamine-xylazine anesthesia. After a week of cell inoculation mice were separated into control and therapeutic groups. Control group mice received 0.3 ml of 0.5% methylcellulose solution, therapeutic group received 0.3 ml of 0.5% methylcellulose with suspended therapeutic compound (30 mg/kg). Tumor volume (mm^3) was calculated as follows: V=L×W^2×0.5. Compounds were administered using oral gavage. Treatment continued for 20 days. Ratio of the mean tumor volume in therapeutic and control groups (% T/C) was used to evaluate efficacy of tumor growth inhibition upon the end of the therapy (20 days). Obtained data was subjected to statistical reliability Dunnet test. Efficacies of tested compounds in 30 mg/kg dose are depicted in Table 5.

Usually bioavailability stands for dose-corrected exposure relative to a reference, in per cent.

For the compound `Cc1nc(Nc2ncc(C(=O)Nc3c(C)cccc3Cl)s2)cc(N2CCN(CCO)CC2)n1` [dasatinib], the bioavailability in data set [1] is recorded as 14-34%.

Regarding `Cc1ccc2nnc(C#Cc3cc(C(=O)Nc4ccc(CN5CCN(C)CC5)c(C(F)(F)F)c4)ccc3C)n2n1` [drawing 144], the “% T/C” value in data set [2] is less than 40%.

As for `Cc1cn(-c2cc(NC(=O)c3ccc(C)c(Nc4nccc(-c5cccnc5)n4)c3)cc(C(F)(F)F)c2)cn1` [nilotinib], the bioavailability in data set [1] was 30%.

As for `Cc1ccc(C(=O)Nc2ccc(CN3CCN(C)CC3)c(C(F)(F)F)c2)cc1C#Cc1cnc2cccnn12` [ponatinib], in data set [1], the bioavailability is recorded as 20%.
